Reference: PubChem BioAssay AID328 (DTP/NCI, 2004)
Inconclusive results and toxic doses are left out. How the source made its calls: active means survival T/C of 150% or more; inactive means T/C below 125% in these data.

Test system: BDF1 mice, P388 leukemia ip, median survival T/C
Test: NCI In Vivo Anticancer Drug Screen. Data for tumor model P388 Leukemia (intraperitoneal) in B6D2F1 (BDF1) mice
Settings: endpoint: median survival time, higher = longer survival
Procedure: The antitumor activity of compounds was measured in mice bearing transplantable tumors. Survival or tumor size were measured and the results are expressed as the measurement made in the treated group (T) divided by the measurement made in the vehicle treated control group (C). The tumor model used in this assay is P388 Leukemia (intraperitoneal) in B6D2F1 (BDF1) mice

[1] = dose: 50.0 mg/kg/injection, schedule: Q01DX009 (ip), vehicle: saline with Tween-80
[2] = dose: 100.0 mg/kg/injection, schedule: Q01DX009 (ip), vehicle: saline with Tween-80
[3] = dose: 100.0 mg/kg/injection, schedule: Q04DX003 (ip), vehicle: saline
[4] = dose: 200.0 mg/kg/injection, schedule: Q01DX009 (ip), vehicle: saline with Tween-80
[5] = dose: 200.0 mg/kg/injection, schedule: Q04DX003 (ip), vehicle: saline
[6] = dose: 400.0 mg/kg/injection, schedule: Q04DX003 (ip), vehicle: saline
[7] = dose: 100.0 mg/kg/injection, schedule: Q01DX009 (ip), vehicle: saline
[8] = dose: 200.0 mg/kg/injection, schedule: Q01DX009 (ip), vehicle: saline
[9] = dose: 400.0 mg/kg/injection, schedule: Q01DX009 (ip), vehicle: saline
[10] = dose: 100.0 mg/kg/injection, schedule: Q04DX003 (ip), vehicle: saline with Tween-80
[11] = dose: 200.0 mg/kg/injection, schedule: Q04DX003 (ip), vehicle: saline with Tween-80
[12] = dose: 50.0 mg/kg/injection, schedule: Q04DX003 (ip), vehicle: saline
[13] = dose: 400.0 mg/kg/injection, schedule: Q04DX003 (ip), vehicle: saline with Tween-80

Measured: T/C

CC1CSCC(C)O1 (stereo unspecified)
inactive: [1] 90 % of control | [2] 100 % of control | [3] 100 % of control | [4] 104 % of control | [5] 100 % of control | [6] 104 % of control

C#CC1(OCC2CO2)CCCCC1 (stereo unspecified)
inactive: [7] 92 % of control | [3] 110 % of control | [8] 103 % of control | [5] 110 % of control | [9] 92 % of control

COc1nc(NC2OCC(O)C(O)C2O)c(C(=O)CCl)c(=O)n1C (stereo unspecified)
inactive: dose: 100.0 mg/kg/injection, schedule: Q04DX002 (ip), vehicle: saline with Tween-80 104 % of control | dose: 200.0 mg/kg/injection, schedule: Q04DX002 (ip), vehicle: saline with Tween-80 100 % of control | dose: 400.0 mg/kg/injection, schedule: Q04DX002 (ip), vehicle: saline with Tween-80 100 % of control

Cn1cc(/C=C\C(=O)O)c2nccnc21
inactive: dose: 6.25 mg/kg/injection, schedule: Q01DX009 (ip), vehicle: water 96 % of control | dose: 12.5 mg/kg/injection, schedule: Q01DX009 (ip), vehicle: water 90 % of control | dose: 25.0 mg/kg/injection, schedule: Q01DX009 (ip), vehicle: water 90 % of control | dose: 100.0 mg/kg/injection, schedule: Q01DX009 (ip), vehicle: water 102 % of control

COc1ccc(CC(C(=O)O)C(Cc2ccc(OC)c(OC)c2)C(=O)O)cc1OC (stereo unspecified)
inactive: dose: 100.0 mg/kg/injection, schedule: Q04DX003 (ip), vehicle: Klucel (hydroxypropylcellulose) (HPC) 109 % of control | dose: 200.0 mg/kg/injection, schedule: Q04DX003 (ip), vehicle: Klucel (hydroxypropylcellulose) (HPC) 100 % of control | dose: 400.0 mg/kg/injection, schedule: Q04DX003 (ip), vehicle: Klucel (hydroxypropylcellulose) (HPC) 109 % of control

COC(=O)C1C2CCc3cc(OC)ccc3C2CC(=O)C1(C)C(=O)OC (stereo unspecified)
inactive: dose: 100.0 mg/kg/injection, schedule: Q04DX003 (sc), vehicle: steriod suspending solution 109 % of control | dose: 200.0 mg/kg/injection, schedule: Q04DX003 (sc), vehicle: steriod suspending solution 90 % of control | dose: 400.0 mg/kg/injection, schedule: Q04DX003 (sc), vehicle: steriod suspending solution 95 % of control

CCC(C)SC1=NC=NC2=NC=NC21 (stereo unspecified)
inactive: [1] 100 % of control | [2] 96 % of control | [10] 91 % of control | [11] 100 % of control

CC[N+]1(CC)CCOC(=O)C1
inactive: [7] 92 % of control | [8] 92 % of control | [9] 92 % of control

CCn1c(Cl)c(/C=N/Nc2ccc([N+](=O)[O-])cc2[N+](=O)[O-])c2ccccc21
inactive: dose: 100.0 mg/kg/injection, schedule: Q04DX002 (ip), vehicle: Klucel (hydroxypropylcellulose) (HPC) 92 % of control | dose: 200.0 mg/kg/injection, schedule: Q04DX002 (ip), vehicle: Klucel (hydroxypropylcellulose) (HPC) 92 % of control | dose: 400.0 mg/kg/injection, schedule: Q04DX002 (ip), vehicle: Klucel (hydroxypropylcellulose) (HPC) 88 % of control

CCOC(=S)SCC(=O)Nc1ccc(Br)cc1
inactive: dose: 15.0 mg/kg/injection, schedule: Q01DX009 (ip), vehicle: saline with Tween-80 93 % of control | dose: 30.0 mg/kg/injection, schedule: Q01DX009 (ip), vehicle: saline with Tween-80 96 % of control | dose: 60.0 mg/kg/injection, schedule: Q01DX009 (ip), vehicle: saline with Tween-80 98 % of control

O=[N+]([O-])c1ccc(-c2nnc3ncccn23)cc1
inactive: [1] 102 % of control | [2] 98 % of control | [4] 90 % of control

CC(C)(O)C(Cl)(Cl)Cl
inactive: [12] 115 % of control | [3] 111 % of control | [5] 107 % of control

CCC(=O)c1cc(O)ccc1O
inactive: dose: 50.0 mg/kg/injection, schedule: Q01DX009 (ip), vehicle: other 106 % of control | dose: 100.0 mg/kg/injection, schedule: Q01DX009 (ip), vehicle: other 97 % of control

COC(=O)C1c2cc3c(c(O)c2CCC1(C)O)C(=O)c1c(O)cc2c(c1C3=O)OC1OC2(C)C(O)C(N(C)C)C1O (stereo unspecified)
inactive: dose: 11.0 mg/kg/injection, schedule: Q01DX009 (ip), vehicle: saline 113 % of control | dose: 200.0 mg/kg/injection, schedule: Q01DX010 (ip), vehicle: saline 105 % of control

Nc1ccc(OCCNS(=O)(=O)c2cccc(S(=O)(=O)F)c2)c(Cl)c1
inactive: dose: 25.0 mg/kg/injection, schedule: Q01DX009 (ip), vehicle: saline 107 % of control | dose: 50.0 mg/kg/injection, schedule: Q01DX009 (ip), vehicle: saline 104 % of control | [12] 103 % of control | [7] 114 % of control | [3] 103 % of control | [8] 105 % of control | [5] 103 % of control | [6] 100 % of control

ON=C(c1ccccn1)c1ccccn1
inactive: dose: 100.0 mg/kg/injection, schedule: Q04DX003 (ip), vehicle: gum acacia 100 % of control | dose: 200.0 mg/kg/injection, schedule: Q04DX003 (ip), vehicle: gum acacia 104 % of control | dose: 400.0 mg/kg/injection, schedule: Q04DX003 (ip), vehicle: gum acacia 104 % of control

COC(OC)c1nc(SC)[nH]c(=O)c1C[N+](C)(C)C
inactive: [10] 100 % of control | [11] 100 % of control | [13] 113 % of control

CCCCCCC(O)CCCCCCCCCCC(=O)O (stereo unspecified)
inactive: [2] 95 % of control | [4] 95 % of control | dose: 400.0 mg/kg/injection, schedule: Q01DX009 (ip), vehicle: saline with Tween-80 100 % of control

COc1ccc(C2C=CC(c3ccccc3)C(c3ccccc3)C2[N+](=O)[O-])cc1OC (stereo unspecified)
inactive: [10] 100 % of control | [11] 100 % of control | [13] 90 % of control

CCCCOCN(COCCCC)C(C)(C)C
inactive: dose: 100.0 mg/kg/injection, schedule: Q01DX001 (ip), vehicle: saline 120 % of control | dose: 200.0 mg/kg/injection, schedule: Q01DX001 (ip), vehicle: saline 110 % of control

ClC(Cl)(Cl)c1nc2nccnc2[nH]1
inactive: dose: 44.0 mg/kg/injection, schedule: Q04DX003 (ip), vehicle: Klucel (hydroxypropylcellulose) (HPC) 104 % of control | dose: 50.0 mg/kg/injection, schedule: Q04DX003 (ip), vehicle: saline with Tween-80 109 % of control | dose: 66.0 mg/kg/injection, schedule: Q04DX003 (ip), vehicle: Klucel (hydroxypropylcellulose) (HPC) 108 % of control | dose: 66.0 mg/kg/injection, schedule: Q04DX003 (ip), vehicle: saline with Tween-80 109 % of control | [10] 104 % of control | dose: 150.0 mg/kg/injection, schedule: Q04DX003 (ip), vehicle: Klucel (hydroxypropylcellulose) (HPC) 100 % of control

COc1ccccc1C(=O)NN
inactive: dose: 6.25 mg/kg/injection, schedule: Q04DX003 (ip), vehicle: saline 100 % of control | dose: 12.5 mg/kg/injection, schedule: Q04DX003 (ip), vehicle: saline 110 % of control | dose: 25.0 mg/kg/injection, schedule: Q04DX003 (ip), vehicle: saline 105 % of control

CC(C)n1c(=O)c2ccccc2[s+]1-c1ccccc1 (stereo unspecified)
inactive: dose: 100.0 mg/kg/injection, schedule: Q01DX001 (ip), vehicle: saline with Tween-80 95 % of control | dose: 200.0 mg/kg/injection, schedule: Q01DX001 (ip), vehicle: saline with Tween-80 95 % of control | dose: 400.0 mg/kg/injection, schedule: Q01DX001 (ip), vehicle: saline with Tween-80 92 % of control
